Target: T1, Bst DNA polymerase (Geobacillus stearothermophilus, UniProt P52026)
T1 sequence (P52026 1-876): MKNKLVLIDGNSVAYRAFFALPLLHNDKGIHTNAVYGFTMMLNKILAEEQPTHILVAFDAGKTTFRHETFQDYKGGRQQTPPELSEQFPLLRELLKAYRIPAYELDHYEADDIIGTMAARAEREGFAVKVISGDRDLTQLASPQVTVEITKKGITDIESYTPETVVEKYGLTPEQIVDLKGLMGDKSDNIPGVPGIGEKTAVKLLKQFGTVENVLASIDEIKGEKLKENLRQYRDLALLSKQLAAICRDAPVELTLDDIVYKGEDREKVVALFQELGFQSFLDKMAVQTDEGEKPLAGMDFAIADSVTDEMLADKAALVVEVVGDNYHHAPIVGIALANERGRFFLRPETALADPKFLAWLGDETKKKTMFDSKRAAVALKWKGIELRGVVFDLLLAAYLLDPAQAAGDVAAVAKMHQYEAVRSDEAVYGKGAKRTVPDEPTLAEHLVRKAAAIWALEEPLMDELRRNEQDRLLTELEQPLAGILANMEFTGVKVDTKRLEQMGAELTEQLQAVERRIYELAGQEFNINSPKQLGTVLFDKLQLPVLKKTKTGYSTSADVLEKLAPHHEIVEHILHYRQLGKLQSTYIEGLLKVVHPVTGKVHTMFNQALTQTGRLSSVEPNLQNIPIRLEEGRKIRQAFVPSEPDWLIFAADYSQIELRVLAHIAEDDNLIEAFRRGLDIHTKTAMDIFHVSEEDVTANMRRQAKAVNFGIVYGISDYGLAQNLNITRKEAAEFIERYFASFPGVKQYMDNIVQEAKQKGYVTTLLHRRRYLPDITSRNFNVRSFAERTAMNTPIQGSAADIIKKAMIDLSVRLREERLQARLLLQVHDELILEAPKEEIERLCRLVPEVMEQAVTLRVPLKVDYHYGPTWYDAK
Assay: Synthesis of single-stranded 56-mer by primer extension and lambda exonuclease digestion
Format: biochemical
Conditions: substituted for dATP and dTTP; for full-length 56-mer product: 65° C., 30 minutes
Protocol: Unstructured single-stranded UNA was generated by incorporating 2-aminoadenosine and 2-thiothymidine nucleotides using a 14-mer primer and 56-mer template (5′-phosphorylated) and Bst DNA polymerase followed by digestion of the DNA template with lambda exonuclease (FIG. 6). Ten microliter extension reactions were performed in 0.65 ml pre-siliconized microfuge tubes containing the following components: 20 mM Tris-Cl (pH 8.8 @ 25° C.), 10 mM KCl, 10 mM (NH4)2SO4, 2 mM MgSO4, 0.1% Triton-X100, 1.0 microM primer/template, 500 microM dGTP, 500 microM dATP (or 2-amino-2′-deoxyadenosine-5′-triphosphate), 500 microM dTTP (or 2-thiothymidine-5′-triphosphate), 200 microM ^32P--CTP and 0.8 units/microL Bst DNA polymerase. The reactions were incubated at 65° C. for 30 minutes, quenched with 5 mM EDTA, ethanol precipitated, dried and resuspended in 10 microL of 10 mM Tris-Cl pH 8.0. The 56-mer template was digested by incubating the resuspended samples with 10 units of lambda exonuclease (Strandase Kit™, (Novagen; Madison, Wis.)) for 30 minutes at 37° C. The reactions were quenched with 5 mM EDTA, ethanol precipitated, dried and resuspended in 10 microL of 10 mM Tris-Cl pH 8.0. The samples were then electrophoresed on 10% denaturing (7M urea) polyacrylamide gels and visualized using phosphorimaging methods.

Row | SMILES | premature termination products | full-length 56-mer product
1 | Cc1cn([C@H]2C[C@H](O)[C@@H](COP(=O)(O)OP(=O)(O)OP(=O)(O)O)O2)c(=S)[nH]c1=O [2-thiothymidine-5′-triphosphate] | little if any | full-length 56-mer product is generated
2 | Nc1nc(N)c2ncn([C@H]3C[C@H](O)[C@@H](COP(=O)(O)OP(=O)(O)OP(=O)(O)O)O3)c2n1 [2-amino-2′-deoxyadenosine-5′-triphosphate] | little if any | full-length 56-mer product is generated
